Assay results: patent US12076331B2, “Inositol derivatives for use in pathological crystallization” (ETH Zurich, priority 2015, dated 2024)

Legend:
[1] = test system: RPTEC/TERT 1 human proximal tubule cells; test: CaP-induced CaOx crystallization on RPTEC monolayers; type: cell-based; conditions: CaP-induced model, 1.2 mM oxalate, 4 h
Protocol: For the assessment of CaP-induced CaOx crystallization, after 24 h of incubation, Ca/P spiked medium was removed, and cells were washed twice with PBS. Subsequently, medium containing 1.2 mM oxalate and compound was added to each well. After 4 h of incubation at 37° C. and 5% CO2 treatment was removed, and cells washed once with PBS before staining.
For staining, ProxUp basal medium was mixed with calcein (500 nM final concentration), EthD (6 μM final concentration), CellMask stain ([…]) and Hoechst 33342. Staining mixture was added to RPTEC and cells were incubated for 30 min in the dark at 37° C. and 5% CO2. Staining solution was removed, cells were washed with PBS once and ProxUp basal medium was added. Cells were immediately imaged after staining. […] For quantification 3 wells/condition were prepared and 3 images/well were taken. […]
To allow rapid profiling of molecules for their effects on diverse kidney calcification processes, the inventors developed a cell-based assay that allowed the monitoring of CaP deposition, as well as cellular changes associated with it. Therefore, the inventors utilized monolayers of renal proximal tubular cells (RPTEC) stained with various dyes to quantify calcification and cell morphology changes (FIG. 3). […] CaP deposits were detected via calcein staining (FIG. 3B). […]

[2] = previous study, Kletzmayr et al. 2020; cited from earlier work
[3] = test system: high phosphate-induced kidney damage; test: mouse model of high phosphate-induced kidney damage; type: in vivo, C57BL/6 male mice; conditions: 100 mg/kg 3 times/week subcutaneously, high phosphate diet, vs vehicle
Protocol: C57BL/6 male were placed on either regular diet containing 0.35% inorganic phosphate (NP) or high phosphate diet containing 2.0% inorganic phosphate (HP). These mice were subcutaneously injected with either (OEG2)2-IP4 (100 mg/kg) or vehicle (distilled water) three times a week and then sacrificed at 20 weeks of age to harvest their blood and kidneys. Relative mRNA levels of (A) Spp1, (B) IL36a, (C) Ngal, (D) MMP3 and (E) Col1a1 in kidney tissue homogenate are shown (mean±SD, N=7, except HP vehicle group N=6, two-way ANOVA with Sidak's multiple comparison between (OEG2)2-IP4 vs. vehicle control within the respective diet group, ns—not significant, * p<0.05). […]
C57BL/6 male mice (12 weeks of age) were placed on either regular diet containing 0.35% inorganic phosphate or high phosphate diet containing 2.0% inorganic phosphate. […] Serum FGF23 levels were measured using intact FGF23 ELISA (Kinos) according to the manufacturers' protocols. Serum and urine levels of phosphate were measured using Fuji Dri-Chem slides and the analyzer (Dri-Chem NX500V, Fuji, Tokyo, Japan). […] Quantitative RT-PCR reactions were performed using 20 ng of cDNA incubated with 410 nM of each primer and 6 μL of SYBR Green PCR Master mix (Toyoba, Osaka, Japan THUNDERBIRD SYBR qPCR Mix QPS-201) in a total volume of 12 μl. […] The cortex and the cortico-medullary junction were evaluated separately. […]

[4] = reported, Schantl et al. 2020; cited from earlier work

SMILES: COCCOCCO[C@@H]1C(OP(=O)(O)O)[C@H](OCCOCCOC)[C@@H](OP(=O)(O)O)C(OP(=O)(O)O)[C@H]1OP(=O)(O)O (stereo partly drawn) [(OEG2)2-IP4]
- CaP-induced CaOx crystallization [1]: reduced
- concentration at which COD was almost entirely abolished [1]: 100 µM
- efficacy on CaOx crystallization in solution [2]: limited efficacy
- fibrosis, collagen volume fraction (Picro-Sirius red staining of the kidneys) [3]: significantly reduces fibrosis
- kidney damage and fibrosis markers (Spp1, IL36a, Ngal, MMP3, Col1a1 mRNA) [3]: significantly reduced
- pharmacokinetic profile [4]: favorable
